Patent US20260224577A1, “METHODS OF TREATING HEART FAILURE WITH VIBEGRON” (SUMITOMO PHARMA CO., LTD., priority 2021, published 2026)

Experiments:
[1] = test system: elderly patients with heart failure, including a subgroup with HFpEF; settings: cited from earlier work
β3-adrenergic receptor = target: T1, β3-adrenergic receptor (Homo sapiens, UniProt P13945); assay: Functional cellular cAMP (HTRF) assay, HEK293 cells expressing β3-ARs; assay type: cell-based
T1 construct: expressed in transfected cells; host or cells: HEK293
T1 sequence (P13945 whole entry): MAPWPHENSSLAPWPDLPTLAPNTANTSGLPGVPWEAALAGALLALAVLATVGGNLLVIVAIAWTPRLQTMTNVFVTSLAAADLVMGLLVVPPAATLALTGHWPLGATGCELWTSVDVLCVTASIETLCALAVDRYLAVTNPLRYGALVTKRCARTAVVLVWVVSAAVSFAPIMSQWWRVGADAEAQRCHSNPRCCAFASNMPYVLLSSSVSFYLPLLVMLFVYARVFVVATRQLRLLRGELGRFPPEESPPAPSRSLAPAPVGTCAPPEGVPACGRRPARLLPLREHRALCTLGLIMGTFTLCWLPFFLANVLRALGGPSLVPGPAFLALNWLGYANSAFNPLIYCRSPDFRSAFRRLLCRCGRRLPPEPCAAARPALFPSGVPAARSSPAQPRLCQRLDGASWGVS
Method: (§1) The potency and maximal effect of vibegron and mirabegron for β3-adrenergic receptors and the selectivity for each […] receptor were determined. Functional cellular assays for vibegron and mirabegron activity were performed using Chinese hamster ovary (CHO) cells expressing β1- or β2-ARs and human embryonic kidney (HEK) 293 cells expressing β3-ARs. Cells were incubated with vibegron, mirabegron, or the appropriate control (isoproterenol for β1 and β3, procaterol for β2). Responses were quantified using homogeneous time-resolved fluorescence of cyclic adenosine monophosphate. Half-maximal effective concentration (EC50) and maximum response (Emax) values were determined by nonlinear least-squares regression analysis.

β1-adrenergic receptor = target: T2, β1-adrenergic receptor (Homo sapiens, UniProt P08588); assay: Functional cellular cAMP (HTRF) assay, CHO cells expressing β1-ARs; assay type: cell-based; settings: relative to isoproterenol
T2 construct: expressed in transfected cells; host or cells: CHO
T2 sequence (P08588 whole entry): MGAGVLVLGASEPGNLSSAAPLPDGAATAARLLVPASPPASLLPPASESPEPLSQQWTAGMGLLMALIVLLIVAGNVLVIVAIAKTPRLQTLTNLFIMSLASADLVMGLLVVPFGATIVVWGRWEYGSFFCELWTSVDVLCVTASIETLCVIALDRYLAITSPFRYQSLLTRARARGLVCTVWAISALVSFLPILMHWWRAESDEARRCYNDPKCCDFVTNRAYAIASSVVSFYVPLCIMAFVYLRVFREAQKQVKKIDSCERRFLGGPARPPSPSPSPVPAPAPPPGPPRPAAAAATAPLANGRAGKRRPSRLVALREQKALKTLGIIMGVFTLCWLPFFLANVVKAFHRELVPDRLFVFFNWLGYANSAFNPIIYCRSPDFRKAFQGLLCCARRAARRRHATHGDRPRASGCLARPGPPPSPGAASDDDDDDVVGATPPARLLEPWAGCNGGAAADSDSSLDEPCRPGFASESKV
Method: as §1

β2-adrenergic receptor = target: T3, β2-adrenergic receptor (Homo sapiens, UniProt P07550); assay: Functional cellular cAMP (HTRF) assay, CHO cells expressing β2-ARs; assay type: cell-based; settings: relative to procaterol
T3 construct: expressed in transfected cells; host or cells: CHO
T3 sequence (P07550 whole entry): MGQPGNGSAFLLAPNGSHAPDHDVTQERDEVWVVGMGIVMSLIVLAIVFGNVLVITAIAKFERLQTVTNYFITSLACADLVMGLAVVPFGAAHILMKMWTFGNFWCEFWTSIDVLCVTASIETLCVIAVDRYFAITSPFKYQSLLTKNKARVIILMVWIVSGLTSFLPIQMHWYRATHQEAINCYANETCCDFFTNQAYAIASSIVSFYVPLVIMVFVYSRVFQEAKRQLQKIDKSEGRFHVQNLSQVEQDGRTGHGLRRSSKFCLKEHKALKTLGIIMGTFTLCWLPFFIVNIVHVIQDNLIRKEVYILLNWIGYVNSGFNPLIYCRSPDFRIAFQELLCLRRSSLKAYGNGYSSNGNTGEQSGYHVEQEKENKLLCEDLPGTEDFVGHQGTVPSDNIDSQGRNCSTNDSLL
Method: as §1

[2] = test system: subjects with NYHA class II-III HF and LVEF <40%; settings: BEAT-HF trial; cited from earlier work

SMILES | Treatment of heart failure [1] | β3-adrenergic activity relative to isoproterenol (% Activity) (β3-adrenergic receptor; 10 μM, HEK293 cells) [%] | Emax (β3-adrenergic receptor; HEK293, estimated by nonlinear least-squares regression, read-out: Emax (maximum response) at the β3-AR) [%] | EC50 (β3-adrenergic receptor; HEK293 cells expressing β3-ARs, cAMP, read-out: Mean (SEM) EC50 at the β3-AR) [µM] | β1-adrenergic activity (% Activity) (β1-adrenergic receptor) [%] | β2-adrenergic activity (% Activity) (β2-adrenergic receptor) [%] | Primary endpoint (change in LVEF) [2]
OC(CNCC(O)C1CCc2cc(F)ccc2O1)C1CCc2cc(F)ccc2O1 (stereo not shown) [nebivolol] | some success in treating heart failure in elderly patients | – | – | – | – | – | –
Nc1nc(CC(=O)Nc2ccc(CCNC[C@H](O)c3ccccc3)cc2)cs1 [Mirabegron] | – | 88 | 80.4 | 0.01 | 3 | 15 | failed to meet the primary endpoint
